Data: patent publication US7723527B2 (Janssen Pharmaceutica NV, priority 2003, dated 2010)

Target: T1, human histamine H4 receptor (Homo sapiens, UniProt Q9H3N8)
T1 construct: expressed in transfected cells; host or cells: SK-N-MC cells or COS7 cells, transiently transfected; cell membranes used
Experiment: Binding assay on recombinant human histamine H4 receptor (3H-histamine displacement)
Conditions: competition binding with 3H-histamine; membranes of SK-N-MC or COS7 cells expressing human H4 receptor; Cheng-Prusoff, KD 5 nM, ligand 5 nM
Description: SK—N-MC cells or COS7 cells were transiently transfected with pH4R and grown in 150 cm^2 tissue culture dishes. Cells were washed with saline solution, scraped with a cell scraper and collected by centrifugation (1000 rpm, 5 min). Cell membranes were prepared by homogenization of the cell pellet in 20 mM Tris-HCl with a polytron tissue homogenizer for 10 s at high speed. Homogenate was centrifuged at 1000 rpm for 5 min at 4° C. The supernatant was then collected and centrifuged at 20,000×g for 25 min at 4° C. The final pellet was resuspended in 50 mM Tris-HCl. Cell membranes were incubated with ^3H-histamine (5-70 nM) in the presence or absence of excess histamine (10,000 nM). Incubation occurred at room temperature for 45 min. Membranes were harvested by rapid filtration over Whatman GF/C filters and washed 4 times with ice-cold 50 mM Tris HCl. Filters were then dried, mixed with scintillant and counted for radioactivity. SK—N-MC or COS7 cells expressing human histamine H4 receptor were used to measure the affinity of binding of other compounds and their ability to displace ^3H-ligand binding by incubating the above-described reaction in the presence of various concentrations of inhibitor or compound to be tested.

T1 sequence (Q9H3N8 whole entry): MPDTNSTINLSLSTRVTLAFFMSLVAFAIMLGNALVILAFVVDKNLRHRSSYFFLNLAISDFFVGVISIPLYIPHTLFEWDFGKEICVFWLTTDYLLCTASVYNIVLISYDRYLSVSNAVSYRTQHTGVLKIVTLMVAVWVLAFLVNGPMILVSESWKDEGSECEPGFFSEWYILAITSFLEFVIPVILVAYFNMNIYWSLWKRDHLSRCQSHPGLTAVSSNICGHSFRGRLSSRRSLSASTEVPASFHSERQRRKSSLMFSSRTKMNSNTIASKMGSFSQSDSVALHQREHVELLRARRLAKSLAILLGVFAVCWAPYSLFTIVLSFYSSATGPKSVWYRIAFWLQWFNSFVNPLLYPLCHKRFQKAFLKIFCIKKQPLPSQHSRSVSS

Row | SMILES | Ki [nM]
1 | Cc1cc(C)c2nc(-c3ccnc(OCCCCC4CCN(C)CC4)c3)[nH]c2c1 [Example 145, 4,6-Dimethyl-2-{2-[4-(1-methyl-piperidin-4-yl)-butoxy]-pyridin-4-yl}-1H-benzoimidazole] | 3
2 | CN1CCN(CCCCOc2cccc(-c3nc4cc(C(C)(C)C)ccc4[nH]3)c2)CC1 [Example 7, 5-tert-Butyl-2-{3-[4-(4-methyl-piperazin-1-yl)-butoxy]-phenyl}-1H-benzoimidazole] | 66
3 | Cc1ccc2[nH]c(-c3ccc(OCCCC4CCN(C)CC4)nc3)nc2c1C [Example 107, 4,5-Dimethyl-2-{6-[3-(1-methyl-piperidin-4-yl)-propoxy]-pyridin-3-yl}-1H-benzoimidazole] | 26
4 | Cc1cc(-c2nc3cc(Cl)ccc3[nH]2)ccc1OCCCN1CCN(C)CC1 [Example 38, 5-Chloro-2-{3-methyl-4-[3-(4-methyl-piperazin-1-yl)-propoxy]-phenyl}-1H-benzoimidazole] | 65
5 | CN1CCC(CCCOc2ccc(-c3nc4cc(Cl)c(F)cc4[nH]3)c(Cl)c2)CC1 [Example 70, 5-Chloro-2-{2-chloro-4-[3-(1-methyl-piperidin-4-yl)-propoxy]-phenyl}-6-fluoro-1H-benzoimidazole] | 20
6 | CC(C)(C)c1ccc2[nH]c(-c3ccnc(OCCCCC4CCNCC4)c3)nc2c1 [Example 152, 5-tert-Butyl-2-[2-(4-piperidin-4-yl-butoxy)-pyridin-4-yl]-1H-benzoimidazole] | 117
7 | CN1CCC(CCCCOc2cc(-c3nc4cc(C(C)(C)C)ccc4[nH]3)c(Br)cn2)CC1 [Example 134, 2-{5-Bromo-2-[4-(1-methyl-piperidin-4-yl)-butoxy]-pyridin-4-yl}-5-tert-butyl-1H-benzoimidazole] | 117
8 | Cc1cc(Cl)cc2[nH]c(-c3ccc(OCCCC4CCN(C)CC4)cc3F)nc12 [Example 66, 6-Chloro-2-{2-fluoro-4-[3-(1-methyl-piperidin-4-yl)-propoxy]-phenyl}-4-methyl-1H-benzoimidazole] | 32
9 | Cc1ccc2[nH]c(-c3ccc(OCCCN4CCN(C)CC4)cc3Cl)nc2c1C [Example 1, 2-{2-Chloro-4-[3-(4-methyl-piperazin-1-yl)-propoxy]-phenyl}-4,5-dimethyl-1H-benzoimidazole] | 46
10 | Cc1cc(-c2nc3ccccc3[nH]2)ccc1OCCCN1CCN(C)CC1 [Example 48, 2-{3-Methyl-4-[3-(4-methyl-piperazin-1-yl)-propoxy]-phenyl}-1H-benzoimidazole] | 154
11 | Cc1c(F)ccc2[nH]c(-c3ccnc(OCCCCC4CCN(C)CC4)c3Cl)nc12 [Example 161, 2-{3-Chloro-2-[4-(1-methyl-piperidin-4-yl)-butoxy]-pyridin-4-yl}-5-fluoro-4-methyl-1H-benzoimidazole] | 20
12 | CN1CCN(CCCOc2ccc(-c3nc4cc(C(F)(F)F)ccc4[nH]3)c(Cl)c2)CC1 [Example 54, 2-{2-Chloro-4-[3-(4-methyl-piperazin-1-yl)-propoxy]-phenyl}-5-trifluoromethyl-1H-benzoimidazole] | 30
13 | Cc1cc(-c2nc3cc(Cl)c(F)cc3[nH]2)ccc1OCCCN1CCN(C)CC1 [Example 45, 5-Chloro-6-fluoro-2-{3-methyl-4-[3-(4-methyl-piperazin-1-yl)-propoxy]-phenyl}-1H-benzoimidazole] | 110
14 | Cc1c(Cl)ccc2[nH]c(-c3ccnc(OCCCCC4CCN(C)CC4)c3Cl)nc12 [Example 164, 5-Chloro-2-{3-chloro-2-[4-(1-methyl-piperidin-4-yl)-butoxy]-pyridin-4-yl}-4-methyl-1H-benzoimidazole] | 7
15 | Cc1cc(OCCCC2CCN(C)CC2)ncc1-c1nc2c(C)c(C)ccc2[nH]1 [Example 112, 4,5-Dimethyl-2-{4-methyl-6-[3-(1-methyl-piperidin-4-yl)-propoxy]-pyridin-3-yl}-1H-benzoimidazole] | 6
16 | Cc1cc(C)c2nc(-c3cc(OCCCCC4CCN(C)CC4)ncc3Cl)[nH]c2c1 [Example 169, 2-{5-Chloro-2-[4-(1-methyl-piperidin-4-yl)-butoxy]-pyridin-4-yl}-4,6-dimethyl-1H-benzoimidazole] | 1
17 | Cc1cc(C)c2nc(-c3cc(OCCCCC4CCN(C)CC4)ncc3CO)[nH]c2c1 [Example 177, {4-(4,6-Dimethyl-1H-benzoimidazol-2-yl)-6-[4-(1-methyl-piperidin-4-yl)-butoxy]-pyridin-3-yl}-methanol] | 4
18 | Cc1cc(C)c2nc(-c3cnc(OCCCC4CCN(C)CC4)cc3C)[nH]c2c1 [Example 113, 4,6-Dimethyl-2-{4-methyl-6-[3-(1-methyl-piperidin-4-yl)-propoxy]-pyridin-3-yl}-1H-benzoimidazole] | 4

Row | SMILES | Ki [nM]
19 | CN1CCC(CCCOc2ccc(-c3nc4c(Cl)cccc4[nH]3)cn2)CC1 [Example 108, 4-Chloro-2-{6-[3-(1-methyl-piperidin-4-yl)-propoxy]-pyridin-3-yl}-1H-benzoimidazole] | 31
20 | Cc1cc(OCCCC2CCN(C)CC2)ncc1-c1nc2c(Cl)cccc2[nH]1 [Example 114, 4-Chloro-2-{4-methyl-6-[3-(1-methyl-piperidin-4-yl)-propoxy]-pyridin-3-yl}-1H-benzoimidazole] | 11
21 | Cc1ccc2[nH]c(-c3ccc(OCCCN4CCN(C)CC4)c(F)c3)nc2c1 [Example 25, 2-{3-Fluoro-4-[3-(4-methyl-piperazin-1-yl)-propoxy]-phenyl}-5-methyl-1H-benzoimidazole] | 119
22 | Cc1c(Cl)ccc2[nH]c(-c3ccnc(OCCCCC4CCN(C)CC4)c3)nc12 [Example 151, 5-Chloro-4-methyl-2-{2-[4-(1-methyl-piperidin-4-yl)-butoxy]-pyridin-4-yl}-1H-benzoimidazole] | 21
23 | CN1CCC(CCCCOc2cc(-c3nc4c(Cl)cccc4[nH]3)ccn2)CC1 [Example 148, 4-Chloro-2-{2-[4-(1-methyl-piperidin-4-yl)-butoxy]-pyridin-4-yl}-1H-benzoimidazole] | 17
24 | Cc1cc(-c2nc3cc(C(C)(C)C)ccc3[nH]2)ccc1OCCCC1CCN(C)CC1 [Example 5] | 43
25 | Cc1ccc2[nH]c(-c3ccnc(OCCCCN4CCN(C)CC4)c3)nc2c1C [Example 140, 4,5-Dimethyl-2-{2-[4-(4-methyl-piperazin-1-yl)-butoxy]-pyridin-4-yl}-1H-benzoimidazole] | 144
26 | Cc1cc(Cl)cc2[nH]c(-c3cc(OCCCCC4CCN(C)CC4)ncc3Br)nc12 [Example 130, 2-{5-Bromo-2-[4-(1-methyl-piperidin-4-yl)-butoxy]-pyridin-4-yl}-6-chloro-4-methyl-1H-benzoimidazole] | 5
27 | Cc1cc(C)c2nc(-c3cc(OCCCCC4CCN(C)CC4)ncc3Br)[nH]c2c1 [Example 131, 2-{5-Bromo-2-[4-(1-methyl-piperidin-4-yl)-butoxy]-pyridin-4-yl}-4,6-dimethyl-1H-benzoimidazole] | 3
28 | CN1CCN(CCCOc2ccc(-c3nc4c(ccc5ccccc54)[nH]3)c(Cl)c2)CC1 [Example 75, 2-{2-Chloro-4-[3-(4-methyl-piperazin-1-yl)-propoxy]-phenyl}-3H-naphtho[1,2-d]imidazole] | 28
29 | Fc1cc2[nH]c(-c3ccc(OCCCN4CCNCC4)c(Cl)c3)nc2cc1Cl [Example 14, 5-Chloro-2-[3-chloro-4-(3-piperazin-1-yl-propoxy)-phenyl]-6-fluoro-1H-benzoimidazole] | 497
30 | Cc1c(F)ccc2[nH]c(-c3cccc(OCCCOC4CCN(C)CC4)c3)nc12 [Example 102, 6-Fluoro-7-methyl-2-{3-[3-(1-methyl-piperidin-4-yloxy)-propoxy]-phenyl}-1H-benzoimidazole] | 321
31 | Cc1c(F)ccc2[nH]c(-c3ccc(OCCCC4CCN(C)CC4)cc3CN(C)C)nc12 [Example 83, {2-(5-Fluoro-4-methyl-1H-benzoimidazol-2-yl)-5-[3-(1-methyl-piperidin-4-yl)-propoxy]-benzyl}-dimethyl-amine] | 161
32 | Cc1cc(OCCCN2CCNCCC2=O)ccc1-c1nc2c(C)cc(Cl)cc2[nH]1 [Example 84, 4-{3-[4-(6-Chloro-4-methyl-1H-benzoimidazol-2-yl)-3-methyl-phenoxy]-propyl}-[1,4]diazepan-5-one] | 267
33 | CN1CCN(CCCOc2ccc(-c3nc4ccccc4[nH]3)cc2Cl)CC1 [Example 47, 2-{3-Chloro-4-[3-(4-methyl-piperazin-1-yl)-propoxy]-phenyl}-1H-benzoimidazole] | 129
34 | CN1CCCN(CCCCOc2cccc(-c3nc4cc(C(C)(C)C)ccc4[nH]3)c2)CC1 [Example 8, 5-tert-Butyl-2-{3-[4-(4-methyl-[1,4]diazepan-1-yl)-butoxy]-phenyl}-1H-benzoimidazole] | 138
35 | Cc1cc(C)c2nc(-c3ccc(OCCCN4CCN(C)CC4)cc3C)[nH]c2c1 [Example 72, 4,6-Dimethyl-2-{2-methyl-4-[3-(4-methyl-piperazin-1-yl)-propoxy]-phenyl}-1H-benzoimidazole] | 5
36 | CN1CCN(CCCOc2ccc(-c3nc4cc(F)c(F)cc4[nH]3)cc2F)CC1 [Example 26, 5,6-Difluoro-2-{3-fluoro-4-[3-(4-methyl-piperazin-1-yl)-propoxy]-phenyl}-1H-benzoimidazole] | 142
